Patent US20230022157A1 (Achillion Pharmaceuticals, Inc., priority 2018, published 2023)

Biological target: T1, Human Factor D (Homo sapiens, UniProt P00746)
T1 construct: purified from human serum; purchased Complement Technology, Inc; host or cells: human serum (natural protein, not recombinant)
Experiment: Human Factor D Assay
Type: biochemical
Settings: Human Factor D 80 nM, substrate Z-L-Lys-SBzl, assay of Example 3; read-out: IC50 (Stars)
Experimental: Human Factor D (purified from human serum, Complement Technology, Inc.) at 80 nM final concentration is incubated with test compound at various concentrations for 5 min at room temperature in 50 mM Tris, 1M NaCl, pH 7.5. A synthetic substrate Z-L-Lys-SBzl and DTNB (Ellman's reagent) are added to final concentrations of 100 μM each. […] IC50 values are calculated by nonlinear regression of complement Factor D reaction rates as a function of test compound concentration.

T1 sequence (P00746 26-253): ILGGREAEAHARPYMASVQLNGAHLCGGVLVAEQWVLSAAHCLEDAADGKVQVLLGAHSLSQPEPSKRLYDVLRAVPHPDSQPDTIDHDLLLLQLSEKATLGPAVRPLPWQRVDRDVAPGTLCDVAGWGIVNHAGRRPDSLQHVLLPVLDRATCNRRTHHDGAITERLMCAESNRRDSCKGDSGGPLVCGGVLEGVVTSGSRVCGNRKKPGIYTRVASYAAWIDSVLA

IC50	SMILES
< 1000 nM	CC(=O)c1nn(CC(=O)N2C[C@H](F)C[C@H]2C(=S)Nc2cccc(Br)n2)c2ccc(-c3cnc(C)nc3)cc12 [Compound 36, (2S,4R)-1-(2-(3-Acetyl-5-(2-methylpyrimidin-5-yl)-1H-indazol-1-yl)acetyl)-N-(6-bromopyridin-2-yl)-4-fluoropyrrolidine-2-carbothioamide]
< 1000 nM	CC(=O)c1nn(CC(=O)N2[C@H](C(=O)N[C@@H](C)[C@H]3CC3(Cl)Cl)C[C@@]3(C)C[C@@H]23)c2ccc(-c3cnc(C)nc3)cc12 [Compound 26, (1R,3S,5R)-2-(2-(3-acetyl-5-(2-methylpyrimidin-5-yl)-1H-indazol-1-yl)acetyl)-N-((S)-1-((R)-2,2-dichlorocyclo-propyl)ethyl)-5-methyl-2-azabicyclo[3.1.0] hexane-3-carboxamide]
< 1000 nM	CC(=O)c1nn(CC(=O)N2[C@H](C(=O)Nc3cccc(C(F)(F)F)c3F)C[C@@]3(C)C[C@@H]23)c2ccc(-c3cnc4cc(C)nn4c3)cc12 [Compound 25, (1R,3S,5R)-2-(2-(3-Acetyl-5-(2-methylpyrazolol[1,5-A]pyrimidin-6-yl)-1H-indazol-1-yl)acetyl)-N-(2-fluoro-3-(trifluoromethyl)phenyl)-5-methyl-2-azabicyclo[3.1.0]hexane-3-carboxamide]
< 1000 nM	CC(=O)c1nn(CC(=O)N2[C@H](C(=O)NCCc3ccccn3)C[C@@]3(C)C[C@@H]23)c2c(C)cc(-c3cnc(C)nc3)cc12 [Compound 6, (1R,3S,5R)-2-(2-(3-Acetyl-7-methyl-5-(2-methylpyrimidin-5-yl)-1H-indazol-1-yl)acetyl)-5-methyl-N-(2-(pyridin-2-yl)ethyl)-2-azabicyclo[3.1.0]hexane-3-carboxamide]

Same assay, conditions: Human Factor D 80 nM, substrate Z-L-Lys-SBzl; Table 2; read-out: IC50 (Stars)

IC50	SMILES
< 1000 nM	CC(=O)c1nn(CC(=O)N2[C@H](C(=O)Nc3nc(Br)ccc3C)C[C@@]3(C)C[C@@H]23)c2c(C)cc(-c3cnc(CF)nc3)cc12 [Compound 208, (1R,3S,5R)-2-(2-(3-acetyl-5-(2-(fluoromethyl)pyrimidin-5-yl)-7-methyl-1H-indazol-1-yl)acetyl)-N-(6-bromo-3-methylpyridin-2-yl)-5-methyl-2-azabicyclo[3.1.0]hexane-3-carboxamide]
< 1000 nM	CC(=O)c1nn(CC(=O)N2[C@H](C(=O)Nc3nc(C(F)(F)F)ccc3C)C[C@@]3(C)C[C@@H]23)c2c(C)cc(-c3cnc(C)nc3)cc12 [Compound 236, (1R,3S,5R)-2-(2-(3-acetyl-7-methyl-5-(2-methylpyrimidin-5-yl)-1H-indazol-1-yl)acetyl)-5-methyl-N-(3-methyl-6-(trifluoromethyl)pyridin-2-yl)-2-azabicyclo[3.1.0]hexane-3-carboxamide]
< 1000 nM	CC(=O)c1nn(CC(=O)N2[C@H](C(=O)Nc3nc(Br)ccc3C)C[C@@]3(C)C[C@@H]23)c2ccc(-c3cnc(C(=O)O)nc3)cc12 [Compound 47, 5-(3-acetyl-1-(2-((1R,3S,5R)-3-((6-bromo-3-methylpyridin-2-yl)carbamoyl)-5-methyl-2-azabicyclo[3.1.0]hexan-2-yl)-2-oxoethyl)-1H-indazol-5-yl)pyrimidine-2-carboxylic acid]
< 1000 nM	CC(=O)c1cn(CC(=O)N2[C@H](C(=O)Nc3cnc(C)c(Br)n3)C[C@@]3(C)C[C@@H]23)c2c(C)cc(-c3cnc(C)nc3)cc12 [Compound 160, (1R,3S,5R)-2-(2-(3-acetyl-7-methyl-5-(2-methylpyrimidin-5-yl)-1H-indol-1-yl)acetyl)-N-(6-bromo-5-methylpyrazin-2-yl)-5-methyl-2-azabicyclo[3.1.0]hexane-3-carboxamide]
< 1000 nM	COC(=O)C1(c2cncc(-c3ccc4c(c3)c(C(C)=O)nn4CC(=O)N3[C@H](C(=O)Nc4nc(Br)ccc4C)C[C@@]4(C)C[C@@H]34)c2)CC1 [Compound 97, Methyl 1-(5-(3-acetyl-1-(2-((1R,3S,5R)-3-((6-bromo-3-methylpyridin-2-yl)carbamoyl)-5-methyl-2-azabicyclo[3.1.0]hexan-2-yl)-2-oxoethyl)-1H-indazol-5-yl)pyridin-3-yl)cyclopropane-1-carboxylate]
< 1000 nM	COc1cc(Br)nc(NC(=O)[C@@H]2C[C@@]3(C)C[C@H]3N2C(=O)Cn2nc(C(C)=O)c3cc(-c4cnc(CO)nc4)ccc32)c1 [Compound 67, (1R,3S,5R)-2-(2-(3-acetyl-5-(2-(hydroxymethyl)pyrimidin-5-yl)-1H-indazol-1-yl)acetyl)-N-(6-bromo-4-methoxypyridin-2-yl)-5-methyl-2-azabicyclo[3.1.0]hexane-3-carboxamide]
< 1000 nM	COC[C@@]12C[C@@H](C(=O)Nc3nc(C(F)(F)F)ccc3C)N(C(=O)Cn3cc(C(C)=O)c4cc(-c5cnc(C)nc5)cc(C)c43)[C@@H]1C2 [Compound 229, (1R,3S,5S)-2-(2-(3-acetyl-7-methyl-5-(2-methylpyrimidin-5-yl)-1H-indol-1-yl)acetyl)-5-(methoxymethyl)-N-(3-methyl-6-(trifluoromethyl)pyridin-2-yl)-2-azabicyclo[3.1.0]hexane-3-carboxamide]
< 1000 nM	CC(=O)c1nn(CC(=O)N2[C@H](C(=O)NC(C)Cc3cccc(F)c3)C[C@@]3(C)C[C@@H]23)c2c(C)cc(-c3cnc(C)nc3)cc12 (stereo partly drawn) [Compound 187, (1R,3S,5R)-2-{2-[3-acetyl-7-methyl-5-(2-methylpyrimidin-5-yl)indazol-1-yl]acetyl}-N-[1-(3-fluorophenyl)propan-2-yl]-5-methyl-2-azabicyclo[3.1.0]hexane-3-carboxamide]
< 1000 nM	CC(=O)c1cn(CC(=O)N2[C@H](C(=O)Nc3nc(C(F)(F)F)ccc3C)C[C@@]3(C)C[C@@H]23)c2c(CO)nc(-c3cnc(C)nc3)cc12 [Compound 207, (1R,3S,5R)-2-(2-(3-acetyl-7-(hydroxymethyl)-5-(2-methylpyrimidin-5-yl)-1H-pyrrolo[2,3-c]pyridin-1-yl)acetyl)-5-methyl-N-(3-methyl-6-(trifluoromethyl)pyridin-2-yl)-2-azabicyclo[3.1.0]hexane-3-carboxamide]
< 1000 nM	CC(=O)c1cn(CC(=O)N2[C@H](C(=O)Nc3nc(C(F)(F)F)ccc3C)C[C@@]3(C)C[C@@H]23)c2c(C)cc(-c3cnc4cc(C)nn4c3)cc12 [Compound 199, (1R,3S,5R)-2-(2-(3-acetyl-7-methyl-5-(2-methylpyrazolo[1,5-a]pyrimidin-6-yl)-1H-indol-1-yl)acetyl)-5-methyl-N-(3-methyl-6-(trifluoromethyl)pyridin-2-yl)-2-azabicyclo[3.1.0]hexane-3-carboxamide]
< 1000 nM	CC(=O)c1cn(CC(=O)N2[C@H](C(=O)Nc3nc(Br)ccc3Cl)C[C@@]3(C)C[C@@H]23)c2c(C)cc(-c3cnc(CO)nc3)cc12 [Compound 84, (1R,3S,5R)-2-(2-(3-acetyl-5-(2-(hydroxymethyl)pyrimidin-5-yl)-7-methyl-1H-indol-1-yl)acetyl)-N-(6-bromo-3-chloropyridin-2-yl)-5-methyl-2-azabicyclo[3.1.0]hexane-3-carboxamide]
< 1000 nM	CC(=O)c1nn(CC(=O)N2[C@H](C(=O)N[C@H]3CCCCC3(F)F)C[C@@]3(C)C[C@@H]23)c2c(C)cc(-c3cnc(C)nc3)cc12 [Compound 149, (1R,3S,5R)-2-{2-[3-acetyl-7-methyl-5-(2-methylpyrimidin-5-yl)indazol-1-yl]acetyl}-N-[(1S)-2,2-difluorocyclohexyl]-5-methyl-2-azabicyclo[3.1.0]hexane-3-carboxamide]
< 1000 nM	CC(=O)c1nn(CC(=O)N2[C@H]3CC[C@H](C3)[C@H]2C(=O)Nc2nc(Br)c(F)cc2C)c2c(C3CC3)cc(-c3cnc(C)nc3)cc12 [Compound 122, (1S,3S,4R)-2-(2-(3-Acetyl-7-cyclopropyl-5-(2-methylpyrimidin-5-yl)-1H-indazol-1-yl)acetyl)-N-(6-bromo-5-fluoro-3-methylpyridin-2-yl)-2-azabicyclo[2.2.1]heptane-3-carboxamide]
< 1000 nM	CC(=O)c1cn(CC(=O)N2[C@H](C(=O)Nc3nc(Br)c(F)cc3C)C[C@@]3(C)C[C@@H]23)c2c(C)cc(-c3cnc(CO)nc3)cc12 [Compound 78, (1R,3S,5R)-2-(2-(3-acetyl-5-(2-(hydroxymethyl)pyrimidin-5-yl)-7-methyl-1H-indol-1-yl)acetyl)-N-(6-bromo-5-fluoro-3-methylpyridin-2-yl)-5-methyl-2-azabicyclo[3.1.0]hexane-3-carboxamide]
< 1000 nM	CC(=O)c1cn(CC(=O)N2[C@H](C(=O)Nc3cncc(Br)n3)C[C@@]3(C)C[C@@H]23)c2c(C)cc(-c3cnc(C)nc3)cc12 [Compound 155, (1R,3S,5R)-2-(2-(3-acetyl-7-methyl-5-(2-methylpyrimidin-5-yl)-1H-indol-1-yl)acetyl)-N-(6-bromopyrazin-2-yl)-5-methyl-2-azabicyclo[3.1.0]hexane-3-carboxamide]
< 1000 nM	CC(=O)c1nn(CC(=O)N2[C@H](C(=O)NC(C)CC3CCC3)C[C@@]3(C)C[C@@H]23)c2c(C)cc(-c3cnc(C)nc3)cc12 (stereo partly shown) [Compound 134]
1000 to 10000 nM	CC(=O)c1nn(CC(=O)N2[C@H](C(=O)N[C@H]3CCCCC34OCCO4)C[C@@]3(C)C[C@@H]23)c2c(C)cc(-c3cnc(C)nc3)cc12 (single isomer, unassigned) [Compound 135]

SMILES	IC50
CC(=O)c1nn(CC(=O)N2[C@H](C(=O)Nc3nc(Br)c(F)cc3C)C[C@@]3(C)C[C@@H]23)c2c(C)cc(-c3cnc(C(C)O)nc3)cc12 (stereo partly drawn) [Compound 96, (1R,3S,5R)-2-(2-(3-acetyl-5-(2-(1-hydroxyethyl)pyrimidin-5-yl)-7-methyl-11H-indazol-1-yl)acetyl)-N-(6-bromo-5-fluoro-3-methylpyridin-2-yl)-5-methyl-2-azabicyclo[3.1.0]hexane-3-carboxamide]	< 1000 nM
